Laboratory results taken from US7579018B2, “Microbiological control in aqueous systems” (Albemarle Corporation, priority 2000, dated 2009).

Tests used:
[1] = Storage of tablets at 50° C. for 30 days, titration of active bromine, Example 24; format: physicochemical
From the text: 1,3-Dibromo-5,5-dimethylhydantoin was blended with micronized polyethylene wax (MPP-611) such that the blend contained 3 wt % of the wax. A sample of the blend (5 g) was introduced to a die made from Hastelloy® C alloy, and compacted to a pressure of 5000 psi. Three more samples (5 g each) were compacted in the same manner, and each time a single tablet was extracted from the die after the pressure had been released. In each case, before filling the die, its interior surfaces were lightly dusted with micronized polypropylene wax to serve as a lubricant. The tablets were manually broken into two equally-sized pieces. One half of each tablet was crushed into a powder with a mortar and pestle, and the powder was titrated to determine its wt % of active bromine. The other half of each tablet was placed in a sealed glass vial and placed in an oven at 50° C. After 30 days, the samples were removed from the oven, ground up, and titrated to determine its wt % of active bromine. For comparative purposes, a control sample of commercially produced 1,3-dibromo-5,5-dimethylhydantoin having an average particle size of about 64.5μ (containing no micronized polyethylene wax) was subjected to the same operations.
Table 16 lists the results obtained for four samples of 1,3-dibromo-5,5-dimethylhydantoin/3 wt % micronized polyethylene wax blends, along with the control sample containing no additive.

[2] = Iodometric titration of clear saturated stock solutions; format: physicochemical; settings: 1 gram powder slurried in 100 mL deionized water, stirred 20 minutes, filtered
Method: Stock solutions of DBDMH and of BCDMH were prepared by slurrying 1 gram of the respective powders in 100 mL of deionized water. After stirring for 20 minutes, the insolubles were filtered to yield clear saturated stock solutions of DBDMH and BCDMH, respectively. Iodometric titration of the stock solutions using the potassium iodide-sodium thiosulfate method indicated the DBDMH solution contained 580 mg/L (as total chlorine), and the BCDMH solution contained 1100 mg/L (as total chlorine).

[3] = “free chlorine” (Hach Method 8021) and “total chlorine” (Hach Method 8167) in dosed simulated cooling water, Example 1; format: physicochemical; settings: simulated cooling water pH 9.1, 38° C.
From the text: The standard tests for determination of “free chlorine” and “total chlorine” are based on classical test procedures devised by Palin in 1974. See A. T. Palin, “Analytical Control of Water Disinfection With Special Reference to Differential DPD Methods For Chlorine, Chlorine Dioxide, Bromine, Iodine and Ozone”, J. Inst. Water Eng., 1974, 28, 139. While there are various modernized versions of the Palin procedures, the version of the tests for “free chlorine” and “total chlorine” used and to be used as the standard in connection with this invention, are fully described in Hach Water Analysis Handbook, 3rd edition, copyright 1997. The procedure for “free chlorine” is identified in that publication as Method 8021 appearing on page 335, whereas the procedure for “total chlorine” is Method 8167 appearing at page 379. Briefly, the “free chlorine” test involves introducing to the halogenated water a powder comprising DPD indicator powder and a buffer. “Free chlorine” present in the water reacts with the DPD indicator to produce a red to pink coloration. The intensity of the coloration depends upon the concentration of “free chlorine” species present in the sample. This intensity is measured by a calorimeter calibrated to transform the intensity reading into a “free chlorine” value in terms of mg/L Cl2. Similarly, the “total chlorine” test also involves use of DPD indicator and buffer. In this case, KI is present with the DPD and buffer whereby the halogen species present, including nitrogen-combined halogen, reacts with KI to yield iodine species which turn the DPD indicator to red/pink. The intensity of this coloration depends upon the sum of the “free chlorine” species and all other halogen species present in the sample. Consequently, this coloration is transformed by the colorimeter into a “total chlorine” value expressed as mg/L Cl2.
DBDAH and BCDMH Test Procedure • 1. To determine the amount of species present in the water which respond to the “free chlorine” and “total chlorine” tests, the water sample should be analyzed within a few minutes of being taken, and preferably immediately upon being taken. • 2. Hach Method 8021 for testing the amount of species present in the water sample which respond to the “free chlorine” test involves use of the Hach Model DR 2010 calorimeter. The stored program number for chlorine determinations is recalled by keying in “80” on the keyboard, followed by setting the absorbance wavelength to 530 nm by rotating the dial on the side of the instrument. Two identical sample cells are filled to the 10 mL mark with the water under investigation. One of the cells is arbitrarily chosen to be the blank. Using the 10 mL cell riser, this is admitted to the sample compartment of the Hach Model DR 2010, and the shield is closed to prevent stray light effects. Then the ZERO key is depressed. After a few seconds, the display registers 0.00 mg/L Cl2. To second cell, the contents of a DPD Free Chlorine Powder Pillow are added. This is shaken for 10-20 seconds to mix, as the development of a pink-red color indicates the presence of species in the water which respond positively to the DPD test reagent. Within one minute of adding the DPD “free chlorine” reagent to the 10 mL of water in the sample cell, the blank cell used to zero the instrument is removed from the cell compartment of the Hach Model DR 2010 and replaced with the test sample to which the DPD “free chlorine” test reagent was added. The light shield is then closed as was done for the blank, and the READ key is depressed. The result, in mg/L Cl2 is shown on the display within a few seconds. This is the “free chlorine” level of the water sample under investigation. • 3. Hach Method 8167 for testing the amount of species present in the water sample which respond to the “total chlorine” test involves use of the Hach Model DR 2010 calorimeter. […]

heterotrophic bacteria = assay: Cooling tower field trial, Example 2: heterotrophic bacteria plate counts
From the text: The effectiveness of DBDMH and of BCDMH in microbiological control in cooling tower water was investigated in comparative tests. The cooling tower consisted of two 500-ton units in a crossflow design. The total system-contained volume was 14,000 gallons, and the tower contained medium efficiency film fill. Water from the tower cooled the coils of two 300-ton air conditioners (chillers). The tower typically operated at a pH of about 9.1 and 4 cycles of concentration. Blowdown was controlled by conductivity. Make-up water consisted of softened city water and which was of good quality. The make-up water was very low in calcium (<10 mg/L) but high in pH (8.7). The alkalinity was 145 mg/L (as CaCO3), and the silica level was 28 mg/L. The tower employed a conventional polyphosphate/molybdate/phosphonate program to provide corrosion and deposit control.
The BCDMH (20 lbs) was introduced to the water using 20-gram, 1-inch tablets charged to a solid halogen feeder (Neptune model BT-40, Neptune Chemical Pump Co., Inc., Lansdale, Pa.). Before each dose, the cooling tower water was sampled and enumerated for heterotrophic bacteria plate counts. Then the tower was slug dosed three times a week with BCDMH. Slug dosing was accomplished by diverting through the feeder containing the tablets a sidestream of the recirculating water for about 1 to 5 hours until a “free chlorine” dose of about 0.5 mg/L (as “free chlorine”) was obtained. The “total chlorine” dose was measured at the same time. After each dose the cooling water was sampled and enumerated for heterotrophic bacteria plate counts. As necessary, the feeder was replenished with more BCDMH tablets.
For example, before the biocide dose the bacteria levels in the bulk water ranged from 10^5 to 10^4 CFUs/mL. After the biocide dose the bacteria levels in the bulk water were reduced to 10^4 to 10^3.
After emptying the feeder of BCDMH tablets, 20 lbs of DBDMH granules was charged into the feeder. Thereupon the same procedure as described above for the BCDMH was carried out except for the fact that is was unnecessary to add any additional DBDMH to the feeder during the 30-day test period. In fact, the total weight of DBDMH consumed during the test was only 7 lbs.

[4] = dosed to 1 mg/L as total chlorine, Time 0 hr
[5] = Time 0.5 hr, percentage of Time 0 value
[6] = Time 1 hr, percentage of Time 0 value
[7] = Time 1.5 hr, percentage of Time 0 value
[8] = Time 2 hr, percentage of Time 0 value
[9] = Time 3 hr, percentage of Time 0 value
[10] = Time 4 hr, percentage of Time 0 value
[11] = Time 5 hr, percentage of Time 0 value
[12] = Time 6 hr, percentage of Time 0 value

Compound: CC1(C)C(=O)N(Br)C(=O)N1Br [Control, 1,3-dibromo-5,5-dimethylhydantoin]
- Wt % Active Bromine, After 30 days ([1]; sealed glass vial in oven at 50° C., 30 days): 55.2 Wt %
- Wt % Active Bromine, Initial ([1]; tablet half crushed and titrated before storage): 55.3 Wt %

Compound: CC1(C)C(=O)N(Cl)C(=O)N1Br [BCDMH, N,N′-bromochloro-5,5-dimethylhydantoin, reference compound]
- halogen content of saturated stock solution (as total chlorine) [2]: 1100 mg/L
- Free Cl2 [3, 4]: 23.1
- Total Cl2 [3, 4]: 100
- % hydrolysis to Free Cl2 ([3]; Time 0 hr): 23.1%
- % hydrolysis to Free Cl2 ([3]; Time 0.5 hr): 24.7%
- Free Cl2 [3, 5]: 25.6%
- Total Cl2 [3, 5]: 104%
- % hydrolysis to Free Cl2 ([3]; Time 1 hr): 23.1%
- Free Cl2 [3, 6]: 23.1%
- Total Cl2 [3, 6]: 100%
- % hydrolysis to Free Cl2 ([3]; Time 1.5 hr): 19.4%
- Free Cl2 [3, 7]: 17.9%
- Total Cl2 [3, 7]: 92.3%
- % hydrolysis to Free Cl2 ([3]; Time 2 hr): 18.8%
- Free Cl2 [3, 8]: 16.6%
- Total Cl2 [3, 8]: 88.5%
- % hydrolysis to Free Cl2 ([3]; Time 3 hr): 18.8%
- Free Cl2 [3, 9]: 16.6%
- Total Cl2 [3, 9]: 88.5%
- % hydrolysis to Free Cl2 ([3]; Time 4 hr): 38.7%
- Free Cl2 [3, 10]: 30.7%
- Total Cl2 [3, 10]: 79.5%
- % hydrolysis to Free Cl2 ([3]; Time 5 hr): 20%
- Free Cl2 [3, 11]: 15.4%
- Total Cl2 [3, 11]: 76.9%
- % hydrolysis to Free Cl2 ([3]; Time 6 hr): 14.3%
- Free Cl2 [3, 12]: 10.2%
- Total Cl2 [3, 12]: 71%
- average reduction of heterotrophic bacterial levels in the bulk water (heterotrophic bacteria; biocide dose 0.5 mg/L “free chlorine”): 1 order of magnitude
- bacteria levels in the bulk water after the biocide dose (heterotrophic bacteria; biocide dose 0.5 mg/L “free chlorine”, before dose 10^5 to 10^4 CFUs/mL): 10^4 to 10^3 CFUs/mL
- Bacteria reduction (heterotrophic bacteria; slug dose 3 times/week, 0.5 ppm free Cl2, cooling tower water): 1.5-2 logs
